Experimental data taken from PubChem BioAssay (NCI).
Several values for one entry are separate records, joined by “and”; a condition that tells them apart may be missing. Equal values may be shown once.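 Each compound was tested at five concentrations against cells in 96-well plates for 48 hours. GI50 marks 50% less growth. TGI denotes the concentration required for complete inhibition of growth.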

Experiments:
Assay in all cases: NCI tumour cell line growth inhibition, 48 h
SK-OV-3 ovarian = test system: SK-OV-3 ovarian
HT29 colon = test system: HT29 colon
NCI-H23 lung = test system: NCI-H23 lung
OVCAR-8 ovarian = test system: OVCAR-8 ovarian
SF-295 CNS = test system: SF-295 CNS
LOX IMVI melanoma = test system: LOX IMVI melanoma

Row | Compound | GI50 (SK-OV-3 ovarian) [µM] | TGI (SK-OV-3 ovarian) | GI50 (HT29 colon) [µM] | TGI (HT29 colon) | GI50 (NCI-H23 lung) [µM] | TGI (NCI-H23 lung) | GI50 (OVCAR-8 ovarian) [µM] | TGI (OVCAR-8 ovarian) | GI50 (SF-295 CNS) [µM] | TGI (SF-295 CNS) | GI50 (LOX IMVI melanoma) [µM] | TGI (LOX IMVI melanoma)
1 | Cc1cc(Cl)cc(Cc2cc(Cl)cc(C)c2O)c1O | 3.18 | 8.89 µM | 3.63 | 10.7 µM | 1.9 | 8.09 µM | 2.1 | 6.16 µM | 2.49 | 7.14 µM | 3 | 8.9 µM
2 | Cc1ccc(OCC2OC(n3cnc4c(Br)nc(Br)nc43)CC2Oc2ccc(C)cc2)cc1 (centres undefined) | 11.2 | 21.4 µM and > 54.2 µM | 2.32 | 8 µM and 7.2 µM | 6.1 | 16.7 µM and 15.4 µM | 18.2 | 42.7 µM and 14.3 µM | 2.22 | 5.28 µM and 25.9 µM | 1.42 | 2.47 µM and 3.67 µM
3 | COC(=O)[C@]12CC[C@@H](C)[C@H](C)[C@@H]1C1=CC[C@@H]3[C@@]4(C)C(C=O)=C[C@@](C)(COC(=O)/C=C/c5ccccc5)[C@@H]4[C@H](O)C[C@@]3(C)[C@]1(C)CC2 | 16.5 | 97.9 µM | 3.1 | 10.2 µM | 2.99 | 15.1 µM | 3.98 | 30.3 µM | 2.06 | 5.78 µM | 1.77 | 3.66 µM
4 | C#Cc1cccc(NC(=O)c2ccc(NC(=O)CCl)cc2)c1 | > 82.5 | > 82.5 µM | 16 | 45.4 µM | 14.9 | 38.4 µM | 22.5 | > 82.5 µM | > 82.5 | > 82.5 µM | 11.2 | 23.5 µM
5 | COc1ccc(/C=C2\c3cc(OC)c(OC)c(OC)c3CC[C@@H]2O)cc1F | 0.306 | 61.1 µM | 1.36 | 13.4 µM | 0.318 | > 100 µM | 0.598 | 93.4 µM | 0.222 | > 100 µM | 0.395 | 48.6 µM
6 | COC1=CC(=O)c2nc(Cl)ccc2C1=O | 11 | 23.3 µM | 2.21 | 4.74 µM | 1.59 | 3.33 µM | 1.68 | 3.11 µM | 1.69 | 3.51 µM | 1.38 | 2.8 µM
7 | CCN(Cc1ccc(F)cc1)c1ccc(CO)c(OC)c1 | 15.3 | > 94.6 µM | 24 | > 67.5 µM | 23.3 | > 100 µM | 19.2 | > 64.5 µM | 23.5 | > 84.3 µM | 27.8 | > 100 µM
8 | COc1cnc2c(c1)C(=O)c1c-2n(CCCN2CCNCC2)c(=O)c2cc([N+](=O)[O-])ccc12 | 0.239 | 0.771 µM | 0.21 | 1.53 µM | – | – | 0.314 | 2.29 µM | 0.126 | 1.07 µM | – | –
9 | c1ccc(N/N=C2\NN=C(c3ccccc3)CS2)cc1 | – | 39.9 µM | – | 24 µM | – | 52.3 µM | – | 19.7 µM | – | 48.6 µM | – | 15.3 µM
10 | C=C1C(=O)O[C@H]2[C@H]1CC/C(COC(=O)NCCCCCCCCNC(=O)OC/C1=C/CC[C@@]3(C)O[C@H]3[C@H]3OC(=O)C(=C)[C@@H]3CC1)=C\CC[C@@]1(C)O[C@@H]21 | 3.64 | 12.3 µM | 0.228 | 0.554 µM | 0.485 | 1.74 µM | 0.326 | 1.24 µM | 1.95 | 4.82 µM | 0.178 | 0.368 µM
11 | CCC[CH2][Pb]([Cl])([CH2]CCC)[CH2]CCC | 0.12 | 0.257 µM | 0.0252 | 0.0645 µM | 0.0298 | 0.116 µM | 0.0206 | 0.0464 µM | 0.13 | 0.26 µM | 0.0223 | 0.045 µM
12 | O=C(O)CCC(C(=O)O)N1C(=O)C2C3CCC(C3)C2C1=O (centres undefined) | – | > 100 µM | – | > 100 µM | – | > 100 µM | – | > 100 µM | – | > 100 µM | – | > 100 µM
13 | COc1cc2c(cc1C)NC(=O)/C2=C\c1c[nH]c2ccccc12 | 17.3 | 37.7 µM | 5.27 | 55.9 µM | 20.2 | 74.6 µM | 20.3 | 67.2 µM | 6.28 | 38 µM | 11.4 | 29.3 µM
14 | COc1ccc(N(C)c2nc(Cl)nc3cnn(C)c23)cc1 | < 0.01 | > 100 µM | < 0.01 | > 100 µM | < 0.0251 | > 100 µM | 0.0192 | > 100 µM | < 0.01 | > 100 µM | < 0.011 | > 100 µM
15 | Cc1ccc(S(=O)(=O)N2CCc3ccc(O)c4c3C2Cc2ccc3c(c2-4)OCO3)cc1 (centres undefined) | 0.731 | 8.09 µM | 2.79 | 7.25 µM | 0.592 | 5.25 µM | 1.41 | 20.7 µM | 1.38 | 12 µM | 0.635 | 4.68 µM
16 | [CH3][Sn]([CH3])([CH3])[O][N+](=O)[O-] | > 10 | > 10 µM | 5.8 | > 10 µM | 5.02 | > 10 µM | 3.6 | > 10 µM | 9.92 | > 10 µM | 2.52 | 6.63 µM
17 | CCCCCCCC(=O)[O][Hg][CH2]C1COC([CH2][Hg][O]C(=O)CCCCCCC)CO1 (centres undefined) | 13.2 | 27.6 µM | 15.6 | 34.3 µM | 14.2 | 28.6 µM | 19.8 | 40.1 µM | 19 | 36.5 µM | – | –
18 | N#CC1C(=O)NC(c2ccccc2[N+](=O)[O-])c2sc3c(F)cccc3c21 (centres undefined) | 10.1 | 62.3 µM | 11.5 | > 93.9 µM | 8.78 | 45 µM | 9.59 | 80.9 µM | 1.11 | 30.3 µM | 15.9 | 37.8 µM
19 | CN1CCN(Cc2ccc(NC(=O)c3cncc(C#Cc4cnc(N)c5cnccc45)c3)cc2C(F)(F)F)CC1 | 0.181 | 6.21 µM | 0.115 | 6.1 µM | 0.189 | 3.81 µM | 0.253 | 8.09 µM | 0.799 | 7.07 µM | 0.0745 | 0.26 µM
20 | COc1ccc(OC)c(/C=C/c2nc(SCc3ccccc3)n(-c3ccc(Cl)cc3)n2)c1 | 8.21 | > 100 µM | 3.93 | 21.5 µM | 6.85 | > 100 µM | 9.36 | > 100 µM | 3.5 | 36.6 µM | 2.89 | > 100 µM
21 | Cn1c2ccccc2c2c(=O)n(CCCC(=O)OC(=NC3CCCCC3)NC3CCCCC3)c3c(-c4ccccc4)nnn3c21 | > 100 | > 100 µM | > 100 | > 100 µM | > 100 | > 100 µM | > 100 | > 100 µM | 79 | > 100 µM | > 100 | > 100 µM
22 | Cc1nccc2c3ccc(OCc4cn(-c5ccc(Cl)cc5)nn4)cc3n(CC(C)C)c12 | 4.25 | 16.5 µM | 1.25 | 10.4 µM | 1.88 | 17.2 µM | 2.73 | 16.2 µM | 1.25 | 7.64 µM | 3.63 | > 33.3 µM
23 | CCCN1CCC(c2ccc(Nc3nc(Nc4cc(F)ccc4C(N)=O)c4cc[nH]c4n3)c(OC)c2)CC1 | 3.03 | 6.93 µM | 0.0124 | 1.06 µM | 2.22 | 6.5 µM | 2.23 | 7.79 µM | 3.86 | 8.37 µM | 0.365 | 5.84 µM
24 | COc1cc(/C=C2\C[C@H]3[C@@H]4CC=C5C[C@@H](OC(C)=O)CC[C@]5(C)[C@H]4CC[C@]3(C)[C@H]2OC(C)=O)ccc1OCCN1CCCC1 | – | – | 11.7 | > 50 µM | 10.1 | 19 µM | 10.3 | 21.4 µM | 12.6 | 25.4 µM | – | –
25 | O=c1c(Cl)cc2nc3ccccc3sc-2c1Cl | – | 39 µM | – | 49.2 µM | – | 28 µM | – | – | – | 34.4 µM | – | 43 µM
26 | CC1=C([Se]CC(OC(=O)[C@@H](CO)NC(=O)OC(C)(C)C)C(=O)NCCCCCC(=O)OCc2ccccc2)C(=O)c2ccccc2C1=O (some centres undefined) | 1.28 | 2.56 µM | 2.15 | 3.97 µM | – | – | 1.84 | 3.36 µM | 0.321 | 1.51 µM | 1.84 | 3.72 µM
27 | CN1CCN(Cc2cc(NC(=O)c3cccc(C#Cc4cccc5[nH]nc(N)c45)c3)cc(C(F)(F)F)c2)CC1 | 1.94 | 3.54 µM | 1.53 | 2.93 µM | 1.72 | 3.4 µM | 1.85 | 3.62 µM | – | – | – | –
28 | COc1ccc2c(c1)C(=O)c1c-2c(Nc2cccc(C(C)=O)c2)nc2ccccc12 | – | – | 21.2 | > 100 µM | 4.86 | 19.3 µM | 14.5 | 34.7 µM | 21.7 | 56.2 µM | 13.4 | 27.5 µM
